Legend:
α1 (non-selective) = test: Radioligand binding assay, adrenergic α1 receptors; conditions: test compound 1×10^−6M; [3H]prazosin; rat cerebral cortex
Method: (§1) Specific ligand binding to the receptors is defined as the difference between the total binding and the non-specific binding determined in the presence of an excess of unlabelled ligand.
(§2) The results are expressed as a percent of control specific binding ((measured specific binding/control specific binding)×100%) obtained in the presence of the test compounds. The compounds were tested for their affinity to receptors at a concentration of 1×10^−6M.
(§3) Conditions and methodology of in vitro tests are given by reference to the literature in Table 1, and the results of tests for representative compounds are given in Table 2 (dopaminergic receptors D2 and D3), in Table 3 (dopaminergic receptors D1 and D4.4), in Table 4 (serotoninergic receptors 5-HT1A, 5-HT2A, 5-HT6, 5-HT7), in table 5 (serotoninergic receptors 5-HT2C), in Table 6 (sigma o receptors), in Table 7 (adrenergic receptors α1, histaminergic receptors H1 and muscarinic receptors M3), in Table 8 (adrenergic receptors α2C) and in Table 9 (serotonin transporter receptors SERT).

σ (non-selective) = test: Radioligand binding assay, σ receptors; conditions: test compound 1×10^−6M; [3H]DTG; rat cerebral cortex
Method: as §1, §2, §3

[1] = biological target: T1, hERG potassium channels (KCNH2 gene, expressed in CHO cells) (Homo sapiens, UniProt Q12809); test: Ability to block hERG potassium channel (electrophysiology, IonWorks Quattro); assay type: cell-based; conditions: cloned hERG in CHO cells; test pulse +40 mV; concentration not given
T1 construct: expressed in transfected cells; host or cells: CHO cells
Method: Ability to Block hERG Potassium Channel Ability to block hERG potassium channels was determined using the electrophysiological method and cloned hERG potassium channels (KCNH2 gene, expressed in CHO cells) as biological material. The effects were evaluated using IonWorks™ Quattro system (MDS-AT).
hERG current was elicited using a pulse pattern with fixed amplitudes (conditioning pre-pulse: −80 mV for 25 ms; test pulse: +40 mV for 80 ms) from a holding potential of 0 mV. hERG current was measured as a difference between the peak current at 1 ms after the test step to +40 mV and the steady-state current at the end of the step to +40 mV.
Data acquisition and analyses were performed using the lonWorks Quattro™ system operation software (version 2.0.2; Molecular Devices Corporation, Union City, Calif.). Data were corrected for leak current.
The hERG block was calculated as: % Block=(1−I TA/IControl)×100%, where IControl and ITA were the currents elicited by the test pulse in control and in the presence of a test compound, respectively.

T1 sequence (Q12809 whole entry): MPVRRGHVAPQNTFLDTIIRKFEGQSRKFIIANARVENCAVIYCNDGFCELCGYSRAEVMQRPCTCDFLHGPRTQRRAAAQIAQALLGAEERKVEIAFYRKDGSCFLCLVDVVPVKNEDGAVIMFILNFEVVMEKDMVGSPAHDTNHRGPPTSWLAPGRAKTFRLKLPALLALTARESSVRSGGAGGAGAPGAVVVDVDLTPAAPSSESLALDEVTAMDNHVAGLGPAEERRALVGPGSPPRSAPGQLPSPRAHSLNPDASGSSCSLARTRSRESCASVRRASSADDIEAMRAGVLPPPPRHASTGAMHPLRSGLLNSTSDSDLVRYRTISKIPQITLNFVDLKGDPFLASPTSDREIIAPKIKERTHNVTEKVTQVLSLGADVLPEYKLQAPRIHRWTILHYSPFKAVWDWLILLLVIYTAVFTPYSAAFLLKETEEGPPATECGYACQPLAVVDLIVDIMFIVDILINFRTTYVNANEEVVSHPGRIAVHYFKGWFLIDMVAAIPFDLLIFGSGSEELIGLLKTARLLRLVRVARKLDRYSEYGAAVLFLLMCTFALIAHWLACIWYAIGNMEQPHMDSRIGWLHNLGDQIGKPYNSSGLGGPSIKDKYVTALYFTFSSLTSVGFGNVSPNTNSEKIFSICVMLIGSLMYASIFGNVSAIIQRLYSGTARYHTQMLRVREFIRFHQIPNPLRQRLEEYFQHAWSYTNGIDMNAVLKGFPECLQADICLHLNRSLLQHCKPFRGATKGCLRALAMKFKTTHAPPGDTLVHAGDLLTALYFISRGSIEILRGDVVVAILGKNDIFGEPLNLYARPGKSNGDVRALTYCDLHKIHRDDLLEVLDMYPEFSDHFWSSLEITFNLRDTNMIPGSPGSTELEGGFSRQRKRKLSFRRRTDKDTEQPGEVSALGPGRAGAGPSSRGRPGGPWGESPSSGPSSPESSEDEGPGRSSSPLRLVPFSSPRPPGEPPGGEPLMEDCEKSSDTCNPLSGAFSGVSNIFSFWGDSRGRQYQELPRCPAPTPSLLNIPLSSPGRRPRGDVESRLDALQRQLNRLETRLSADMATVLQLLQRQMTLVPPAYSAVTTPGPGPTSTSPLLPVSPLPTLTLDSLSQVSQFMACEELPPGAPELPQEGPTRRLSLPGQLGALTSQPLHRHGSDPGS

Compound	α1 [%] (α1 (non-selective))	σ [%] (σ (non-selective))	hERG [%] (% Block) [1]
O=S(=O)(Nc1cccc(CNCCOc2cccc3c2OCCO3)c1)c1ccc(I)cc1 [Compound 22, N-[3-[[2-(2,3-dihydro-1,4-benzodioxin-5-yloxy)ethylamino]methyl]phenyl]-4-iodobenzenesulphonamide]	84%	95%	–
O=S(=O)(Nc1cccc(CNCCOc2cccc3c2OCCO3)c1)c1cccc2ccccc12 [Compound 35, N-[3-[[2-(2,3-dihydro-1,4-benzodioxin-5-yloxy)ethylamino]methyl]phenyl]naphthalene-1-sulphonamide]	–	–	−1%
O=S(=O)(Nc1cccc(CNCCOc2cccc3c2OCCO3)c1)c1ccc2ccccc2c1 [Compound 36, N-[3-[[2-(2,3-dihydro-1,4-benzodioxin-5-yloxy)ethylamino]methyl]phenyl]naphthalene-2-sulphonamide]	–	–	1%
O=S(=O)(Nc1cccc(CNCCOc2cccc3c2OCCO3)c1)c1csc2ccccc12 [Compound 43, N-[3-[[2-(2,3-dihydro-1,4-benzodioxin-5-yloxy)ethylamino]methyl]phenyl]benzothiophene-3-sulphonamide]	–	–	10%
Cc1cccc(S(=O)(=O)Nc2cccc(CNCCOc3cccc4[nH]ccc34)c2)c1 [Compound 49, N-[3-[[2-(1H-indol-4-yloxy)ethylamino]methyl]phenyl]-3-methyl-benzenesulphonamide]	59%	79%	2%
O=S(=O)(Nc1cccc(CNCCOc2cccc3[nH]ccc23)c1)c1cccc2ccccc12 [Compound 51, N-[3-[[2-(1H-indol-4-yloxy)ethylamino]methyl]phenyl]naphthalene-1-sulphonamide]	34%	76%	1%
O=S(=O)(Nc1cccc(CNCCOc2cccc3[nH]ccc23)c1)c1ccc2ccccc2c1 [Compound 52, N-[3-[[2-(1H-indol-4-yloxy)ethylamino]methyl]phenyl]naphthalene-2-sulphonamide]	41%	79%	2%
CN(CCCc1noc2cc(F)ccc12)Cc1cccc(NS(=O)(=O)c2ccc(I)cc2)c1 [Compound 68, N-[3-[[3-(6-fluoro-1,2-benzoxazol-3-yl)propylmethylamino]methyl]phenyl]-4-iodobenzenesulphonamide]	84%	73%	–

More lines, main results first:

α1 [%] (α1 (non-selective))	σ [%] (σ (non-selective))	Compound	hERG [%] (% Block) [1]
26%	83%	O=S(=O)(Nc1cccc(CNCCc2ccccc2)c1)c1ccc2ccccc2c1 [Compound 1, N-[3-[(phenylethylamino)methyl]phenyl]naphthalene-2-sulphonamide]	–
53%	73%	O=S(=O)(Nc1cccc(CNCCc2cccc(Cl)c2)c1)c1ccc2ccccc2c1 [Compound 6, N-[3-[[2-(3-chlorophenyl)ethylamino]methyl]phenyl]naphthalene-2-sulphonamide]	–
17%	85%	Cc1cccc(CCNCc2cccc(NS(=O)(=O)c3ccc4ccccc4c3)c2)c1 [Compound 8, N-[3-[[2-(3-methylphenyl)ethylamino]methyl]phenyl]naphthalene-2-sulphonamide]	–
56%	–	COc1ccccc1CCNCc1cccc(NS(=O)(=O)c2ccc3ccccc3c2)c1 [Compound 9, N-[3-[[2-(2-methoxyphenyl)ethylamino]methyl]phenyl]naphthalene-2-sulphonamide]	–
20%	74%	COc1ccccc1OCCNCc1cccc(NS(=O)(=O)c2ccc3ccccc3c2)c1 [Compound 10, N-[3-[[2-(2-methoxyphenoxyl)ethylamino]methyl]phenyl]naphthalene-2-sulphonamide]	–
18%	76%	COc1cccc(CCNCc2cccc(NS(=O)(=O)c3ccc4ccccc4c3)c2)c1 [Compound 11, N-[3-[[2-(3-methoxyphenyl)ethylamino]methyl]phenyl]naphthalene-2-sulphonamide]	−4%
13%	54%	COc1ccc(CCNCc2cccc(NS(=O)(=O)c3ccc4ccccc4c3)c2)cc1 [Compound 14, N-[3-[[2-(4-methoxyphenyl)ethylamino]methyl]phenyl]naphthalene-2-sulphonamide]	–
31%	71%	O=S(=O)(Nc1cccc(CNCCc2cccc(O)c2)c1)c1ccc2ccccc2c1 [Compound 17, N-[3-[[2-(3-hydroxyphenyl)ethylamino]methyl]phenyl]naphthalene-2-sulphonamide]	–

Reference: patent US20150051257A1, “SULPHONAMIDE DERIVATIVES OF BENZYLAMINE FOR THE TREATMENT OF CNS DISEASES” (ADAMED SP. Z O.O, priority 2012, published 2015)
